Assays:
Flt-1 = Flt-1 (Homo sapiens, UniProt P17948); details: statement in words, no test described; cited from earlier work
advanced MDS = experiment: Clinical example: oral PTK787 in patients with untreated advanced MDS; type: in vivo, human
Flt-4 = Flt-4 (Homo sapiens, UniProt P35916); details: statement in words, no test described; cited from earlier work
c-Kit = c-Kit (Homo sapiens, UniProt P10721); details: statement in words, no test described; cited from earlier work
c-Kit, sequence (P10721 26-976): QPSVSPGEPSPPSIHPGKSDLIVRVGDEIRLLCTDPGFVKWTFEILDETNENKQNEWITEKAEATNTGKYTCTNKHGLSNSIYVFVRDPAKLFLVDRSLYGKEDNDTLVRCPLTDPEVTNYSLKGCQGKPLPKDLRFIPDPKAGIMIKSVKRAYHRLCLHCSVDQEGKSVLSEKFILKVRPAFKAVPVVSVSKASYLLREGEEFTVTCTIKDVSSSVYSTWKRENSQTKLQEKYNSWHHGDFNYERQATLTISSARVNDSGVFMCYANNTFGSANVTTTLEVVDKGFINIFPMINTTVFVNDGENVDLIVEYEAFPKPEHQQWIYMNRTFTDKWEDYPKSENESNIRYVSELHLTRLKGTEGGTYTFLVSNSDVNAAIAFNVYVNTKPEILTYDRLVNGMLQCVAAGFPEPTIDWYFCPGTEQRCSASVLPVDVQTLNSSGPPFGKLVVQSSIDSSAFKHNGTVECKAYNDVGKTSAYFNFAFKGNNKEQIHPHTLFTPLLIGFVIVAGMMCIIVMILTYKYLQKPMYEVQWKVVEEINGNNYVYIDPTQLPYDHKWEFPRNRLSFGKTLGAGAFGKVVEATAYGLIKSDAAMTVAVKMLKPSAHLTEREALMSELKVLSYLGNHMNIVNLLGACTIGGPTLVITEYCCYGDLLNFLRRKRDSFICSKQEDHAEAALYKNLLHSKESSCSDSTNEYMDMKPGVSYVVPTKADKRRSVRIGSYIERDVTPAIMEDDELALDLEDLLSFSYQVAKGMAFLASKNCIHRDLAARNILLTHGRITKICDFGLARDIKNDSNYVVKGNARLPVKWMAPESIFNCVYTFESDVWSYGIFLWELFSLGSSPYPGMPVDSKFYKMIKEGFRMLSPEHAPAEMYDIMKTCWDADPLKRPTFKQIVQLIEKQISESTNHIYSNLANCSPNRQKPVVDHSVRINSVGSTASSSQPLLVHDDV

Flt-1, sequence (P17948 27-1338, species assumed): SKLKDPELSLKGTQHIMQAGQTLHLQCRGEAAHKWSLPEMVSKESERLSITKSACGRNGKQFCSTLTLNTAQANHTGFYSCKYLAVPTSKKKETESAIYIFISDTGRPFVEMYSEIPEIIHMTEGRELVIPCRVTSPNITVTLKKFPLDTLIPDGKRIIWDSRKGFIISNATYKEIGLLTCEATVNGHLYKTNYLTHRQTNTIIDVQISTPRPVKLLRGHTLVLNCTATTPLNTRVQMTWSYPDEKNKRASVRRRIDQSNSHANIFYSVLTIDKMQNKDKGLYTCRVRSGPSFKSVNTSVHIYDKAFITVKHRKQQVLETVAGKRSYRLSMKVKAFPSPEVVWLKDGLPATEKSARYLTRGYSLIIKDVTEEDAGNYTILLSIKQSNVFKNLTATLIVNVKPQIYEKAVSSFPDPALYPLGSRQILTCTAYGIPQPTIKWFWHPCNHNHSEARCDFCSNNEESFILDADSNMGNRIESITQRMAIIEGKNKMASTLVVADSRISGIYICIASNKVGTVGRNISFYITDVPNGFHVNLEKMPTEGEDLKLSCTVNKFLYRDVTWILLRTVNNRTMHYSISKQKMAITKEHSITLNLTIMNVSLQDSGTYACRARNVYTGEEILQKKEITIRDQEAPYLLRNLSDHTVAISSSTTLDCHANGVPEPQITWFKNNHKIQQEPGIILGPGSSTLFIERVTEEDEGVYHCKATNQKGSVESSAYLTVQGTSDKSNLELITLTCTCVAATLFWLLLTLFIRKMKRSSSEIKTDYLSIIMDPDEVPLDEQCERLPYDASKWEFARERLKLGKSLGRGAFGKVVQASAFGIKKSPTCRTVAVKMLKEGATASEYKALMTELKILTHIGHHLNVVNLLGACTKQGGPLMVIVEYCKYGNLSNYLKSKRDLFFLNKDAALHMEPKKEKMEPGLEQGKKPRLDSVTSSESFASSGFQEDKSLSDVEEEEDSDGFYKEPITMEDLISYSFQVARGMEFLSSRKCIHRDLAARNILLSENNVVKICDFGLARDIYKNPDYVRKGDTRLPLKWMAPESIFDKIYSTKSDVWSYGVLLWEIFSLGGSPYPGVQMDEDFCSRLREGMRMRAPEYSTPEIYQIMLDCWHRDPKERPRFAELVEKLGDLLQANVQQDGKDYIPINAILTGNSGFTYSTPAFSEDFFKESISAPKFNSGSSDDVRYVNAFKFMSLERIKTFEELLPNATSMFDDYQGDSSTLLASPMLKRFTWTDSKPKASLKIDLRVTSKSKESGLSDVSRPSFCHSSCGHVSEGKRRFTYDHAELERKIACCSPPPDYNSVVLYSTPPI
Flt-4, sequence (P35916 25-1363, species assumed): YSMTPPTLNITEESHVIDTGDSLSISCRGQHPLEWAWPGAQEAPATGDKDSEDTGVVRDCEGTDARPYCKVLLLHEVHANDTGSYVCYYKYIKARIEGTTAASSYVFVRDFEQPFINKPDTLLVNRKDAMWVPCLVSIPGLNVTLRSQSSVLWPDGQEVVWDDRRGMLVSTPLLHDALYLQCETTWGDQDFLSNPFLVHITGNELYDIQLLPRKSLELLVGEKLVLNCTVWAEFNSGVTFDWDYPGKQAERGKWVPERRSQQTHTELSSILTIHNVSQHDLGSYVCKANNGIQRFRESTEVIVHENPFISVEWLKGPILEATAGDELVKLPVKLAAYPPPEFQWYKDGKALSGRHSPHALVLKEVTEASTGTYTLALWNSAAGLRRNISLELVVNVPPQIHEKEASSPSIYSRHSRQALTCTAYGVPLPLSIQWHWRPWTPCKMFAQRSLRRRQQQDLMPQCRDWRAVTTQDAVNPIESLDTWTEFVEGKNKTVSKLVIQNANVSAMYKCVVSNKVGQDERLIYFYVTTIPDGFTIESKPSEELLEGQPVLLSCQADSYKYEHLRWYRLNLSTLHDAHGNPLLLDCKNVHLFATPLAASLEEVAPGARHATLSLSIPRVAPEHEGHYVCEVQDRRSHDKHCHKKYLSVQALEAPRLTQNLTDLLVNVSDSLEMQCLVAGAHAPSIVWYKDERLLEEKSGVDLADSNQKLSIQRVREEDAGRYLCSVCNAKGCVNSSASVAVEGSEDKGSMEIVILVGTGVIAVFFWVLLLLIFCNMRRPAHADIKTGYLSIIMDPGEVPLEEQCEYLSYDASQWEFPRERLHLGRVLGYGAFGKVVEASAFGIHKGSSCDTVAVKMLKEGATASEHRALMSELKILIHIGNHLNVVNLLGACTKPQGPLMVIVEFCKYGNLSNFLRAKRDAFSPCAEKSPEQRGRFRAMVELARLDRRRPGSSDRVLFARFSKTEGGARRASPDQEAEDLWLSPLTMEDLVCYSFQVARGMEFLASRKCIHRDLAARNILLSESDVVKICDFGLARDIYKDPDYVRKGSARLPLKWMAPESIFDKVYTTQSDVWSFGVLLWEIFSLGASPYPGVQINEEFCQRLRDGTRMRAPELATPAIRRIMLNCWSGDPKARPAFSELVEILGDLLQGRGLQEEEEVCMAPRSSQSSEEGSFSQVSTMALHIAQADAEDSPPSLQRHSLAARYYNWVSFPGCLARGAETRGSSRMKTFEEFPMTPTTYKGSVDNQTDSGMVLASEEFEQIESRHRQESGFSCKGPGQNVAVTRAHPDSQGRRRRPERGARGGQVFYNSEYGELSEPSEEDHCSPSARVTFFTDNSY

For `Clc1ccc(Nc2nnc(Cc3ccncc3)c3ccccc23)cc1` [PTK787], the “inhibition of Flt-1” value (Flt-1) is given as “can also inhibit”, the “disease progression in patients with MDS” value (advanced MDS; in at least some patients with MDS) is given as “slows disease progression” and the “patients with MDS showing stable disease with excellent performance status” value (advanced MDS; of twelve patients, 500 or 750 mg orally twice daily) is given as “Two”. The bone marrow blasts (advanced MDS; one patient with baseline 18% bone marrow blasts, remained for 8 months, 500 or 750 mg orally twice daily) was “under 30%”, the bone marrow blasts (advanced MDS; second patient with baseline 11.5% blasts, remained for 4 months, 500 or 750 mg orally twice daily) was ≤ 16% and the “inhibition of Flt-4” value (Flt-4) was “can also inhibit”. For the same molecule, the “activity against c-Kit” value (c-Kit) was “has activity against other tyrosine kinase receptors”.

Reference: patent publication US20060128716A1, “Use of 4-pyridylmethyl-phthalazine derivatives for the manufacture of a medicament for the treatment of myelodysplastic syndromes” (priority 2002, published 2006)
